Key:
[1] = test system: NPY-induced feeding behavior; test: Antagonistic Test Against NPY-Induced Feeding Behavior In Vivo; design: species or system male SD rat; conditions: 200 μg/head, into lateral ventricle, simultaneously with NPY (5 μg/head/10 μl); food intake for two hours; Duncan's test, p<0.05 significant
Experimental: Pharmacological Test Example 2
(Antagonistic Test Against NPY-Induced Feeding Behavior In Vivo)
Under pentobarbital anesthesia (intraperitoneal single administration of 200 mg/kg), a chronic guide cannula (outer diameter: 0.8 mm, inner diameter: 0.5 mm, length: 10 mm) was inserted stereotaxically in the right lateral cerebral ventricle of a male SD rat (7 to 8 weeks old, 200 to 300 g) and fixed by a dental resin. The forward end position of the guide cannula was at 0.9 mm posterior to bregma, 1.2 mm to the right of the midline and 1.5 mm ventral to the brain surface, so that when an inner needle was inserted, the forward end extended beyond the forward end of the guide cannula by about 2 mm and reached the lateral ventricle. After a recovery period of about one week, NPY (5 μg/head/10 μl) was administered into the lateral ventricle. The test compound was simultaneously administered as mixed with NPY, and food intake for two hours after the administration was measured. With respect to the obtained result, a multiple comparative determination was carried out by Duncan's test, whereby p<0.05 was taken as significant.

NPY Y1 receptor = target: T1, NPY Y1 receptor (Homo sapiens, UniProt P25929); test: NPY Binding Inhibition Test ([125I] peptide YY binding to SK-N-MC cell membranes); conditions: SK-N-MC membrane, 25° C., 2 hours, pH 7.4, 20,000 cpm [125I] peptide YY; read-out: IC50 (50% inhibition concentration against specific [125I] peptide YY binding)
T1 construct: A membrane sample prepared from SK-N-MC cells derived from human neuroblastoma; endogenous in cells; host or cells: SK-N-MC
T1 sequence (P25929 1-384): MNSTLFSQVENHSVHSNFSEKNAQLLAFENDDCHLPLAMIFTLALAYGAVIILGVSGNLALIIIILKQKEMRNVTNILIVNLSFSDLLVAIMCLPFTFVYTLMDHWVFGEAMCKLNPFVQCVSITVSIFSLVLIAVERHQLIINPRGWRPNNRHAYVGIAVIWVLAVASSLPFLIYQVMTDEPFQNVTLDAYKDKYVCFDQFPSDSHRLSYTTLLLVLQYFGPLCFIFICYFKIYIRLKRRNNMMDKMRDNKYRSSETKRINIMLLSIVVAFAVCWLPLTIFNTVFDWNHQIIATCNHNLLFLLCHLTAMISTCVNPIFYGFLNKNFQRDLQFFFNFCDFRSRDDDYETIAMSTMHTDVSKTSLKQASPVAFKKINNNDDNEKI
Experimental: Pharmacological Test Example 1
(NPY Binding Inhibition Test)
A membrane sample prepared from SK-N-MC cells derived from human neuroblastoma in which the expression of NPY Y1 receptor was reported, was incubated at 25° C. for 2 hours together with a test compound and 20,000 cpm of [^125 I] peptide YY (manufactured by Amersham Company) in an assay buffer (25 mM HEPES buffer solution containing 10 mM of magnesium chloride, 1 mM of phenylmethylsulfonyl fluoride, 0.1% of bacitracin and 0.5% of BSA, pH 7.4), and then subjected to filtration by a glass filter GF/C. After washing with a 50 mM Tris buffer solution containing 0.3% of BSA at pH 7.4, the radiation activity on the glass filter was measured by a gamma counter. The nonspecific binding was measured in the presence of 1 μM of peptide YY and the 50% inhibition concentration (IC50) of the test compound against specific [^125 I] peptide YY binding was obtained [Endocrinology, vol. 131, 2090 (1992)].

C=CCOC(=O)Nc1cccc(CNc2cc(N3CCOCC3)cc(CSc3nnc(CC)s3)n2)c1 [Example 4, 6-(5-ethyl-1,3,4-thiadiazol-2-ylthiomethyl)-4-morpholino-2-[3-(2-propenyloxycarbonylamino)benzylamino]pyridine]
increase in food intake induced by NPY [1]: significantly suppressed the increase in food intake induced by NPY
IC50 (NPY Y1 receptor): 0.33 nM
